Laboratory results taken from paper PMC8878047 (Pharmaceutics, 2022).
Read-outs that look alike come from different tables or passages of the source.

Experiments:
[1] = Description: All tests were conducted in the animal experimental center of Guangxi Medical University. Preliminary experiments were needed before starting official tests. […] Groups of mice (n = 10 per group, half male and half female) received different doses of the tested compounds by gavage at the same single dose of drug solution, which was uniformed to be […] (drug solution)/10 g, but containing different concentration of tested drugs. […] We compared these mice with the control group in which the mice were not given drugs, according to the pre-experimental procedure. We closely observed the mice for 6 h after the gavage for signs of toxicity and mortality. As soon as death occurred among the maximum-dose group, we conducted an autopsy and took samples from the main organs for histopathological examination. In addition, we monitored all of the tested mice for 2 weeks to record their weight and mortality.
[2] = test system: wild type AB strain zebrafish; details: 30 embryos per well
Description: Zebrafish were incubated and grown in the Joint Laboratory established by Shandong Rui’ying Pharmaceutical Group (Heze, China) and China Pharmaceutical University. Both the Wild-type AB (Danio rerio) and Tg(mpx:eGFP) zebrafish strains were maintained under the guidance of the standard procedures of The Zebrafish Book. […] Then the zebrafish were allowed to naturally mate and spawn the next morning. The normally born embryos were then collected after 1 h and kept in an incubating system at 28 °C. The 6 hpf (hour post fertilization) embryos were transferred into a 6-well plate exposed to 5 mL of egg water, in which 30 embryos were in each well.

[3] = 0.01 μM medicated bath, 120 hpf

CCN1CCN(c2cc3c(cc2F)c(=O)c(C(=O)[O-])cn3C2CC2)CC1.CCN1CCN(c2cc3c(cc2F)c(=O)c(C(=O)[O-])cn3C2CC2)CC1.O.O.O.O.[Ca+2] [EFX-Ca, [Ca(EFX)2(H2O)4]·H2O]
Body Weight (g, x¯ ± SD) ([1]; 2000 mg/kg single gavage, Day-0): 17.51 ± 1.14 g
Body Weight (g, x¯ ± SD) ([1]; 2000 mg/kg single gavage, Day-1): 19.77 ± 1.22 g
Body Weight (g, x¯ ± SD) ([1]; 2000 mg/kg single gavage, Day-4): 25.91 ± 1.83 g
Body Weight (g, x¯ ± SD) ([1]; 2000 mg/kg single gavage, Day-7): 29.78 ± 3.46 g
Body Weight (g, x¯ ± SD) ([1]; 2000 mg/kg single gavage, Day-14): 33.33 ± 5.64 g
Body Weight (g, x¯ ± SD) ([1]; 3031 mg/kg single gavage, Day-0): 18.32 ± 0.94 g
Body Weight (g, x¯ ± SD) ([1]; 3031 mg/kg single gavage, Day-1): 19.61 ± 1.23 g
Body Weight (g, x¯ ± SD) ([1]; 3031 mg/kg single gavage, Day-4): 25.70 ± 1.24 g
Body Weight (g, x¯ ± SD) ([1]; 3031 mg/kg single gavage, Day-7): 28.44 ± 2.14 g
Body Weight (g, x¯ ± SD) ([1]; 3031 mg/kg single gavage, Day-14): 33.91 ± 5.25 g
Body Weight (g, x¯ ± SD) ([1]; 4595 mg/kg single gavage, Day-0): 17.31 ± 1.05 g
Body Weight (g, x¯ ± SD) ([1]; 4595 mg/kg single gavage, Day-1): 17.09 ± 1.56 g
Body Weight (g, x¯ ± SD) ([1]; 4595 mg/kg single gavage, Day-4): 20.10 ± 5.55 g
Body Weight (g, x¯ ± SD) ([1]; 4595 mg/kg single gavage, Day-7): 26.43 ± 5.34 g
Body Weight (g, x¯ ± SD) ([1]; 4595 mg/kg single gavage, Day-14): 33.60 ± 7.07 g
Body Weight (g, x¯ ± SD) ([1]; 6964 mg/kg single gavage, Day-0): 17.68 ± 0.88 g
Body Weight (g, x¯ ± SD) ([1]; 6964 mg/kg single gavage, Day-1): 17.21 ± 1.22 g
Body Weight (g, x¯ ± SD) ([1]; 6964 mg/kg single gavage, Day-4): 16.89 ± 5.13 g
Body Weight (g, x¯ ± SD) ([1]; 6964 mg/kg single gavage, Day-7): 23.11 ± 4.21 g
Body Weight (g, x¯ ± SD) ([1]; 6964 mg/kg single gavage, Day-14): 29.30 ± 5.26 g
Body Weight (g, x¯ ± SD) ([1]; 10,556 mg/kg single gavage, Day-0): 17.67 ± 0.72 g
Body Weight (g, x¯ ± SD) ([1]; 10,556 mg/kg single gavage, Day-1): 17.00 ± 0.30 g
Body Weight (g, x¯ ± SD) ([1]; 10,556 mg/kg single gavage, Day-4): 21.53 ± 2.10 g
Body Weight (g, x¯ ± SD) ([1]; 10,556 mg/kg single gavage, Day-7): 26.47 ± 3.50 g
Body Weight (g, x¯ ± SD) ([1]; 10,556 mg/kg single gavage, Day-14): 34.00 ± 7.50 g
Body Weight (g, x¯ ± SD) ([1]; 16,000 mg/kg single gavage, Day-0): 17.84 ± 1.23 g
Body Weight (g, x¯ ± SD) ([1]; 16,000 mg/kg single gavage, Day-1): 17.43 ± 1.95 g
Body Weight (g, x¯ ± SD) ([1]; 16,000 mg/kg single gavage, Day-4): 23.55 ± 2.66 g
Body Weight (g, x¯ ± SD) ([1]; 16,000 mg/kg single gavage, Day-7): 29.15 ± 2.66 g
Body Weight (g, x¯ ± SD) ([1]; 16,000 mg/kg single gavage, Day-14): 37.25 ± 4.57 g
statistical death of the tested zebrafish ([2]; 0.01 μM medicated bath, 24 hpf): 6
statistical survival of the tested zebrafish ([2]; 0.01 μM medicated bath, 24 hpf): 24
statistical death of the tested zebrafish ([2]; 0.01 μM medicated bath, 48 hpf): 6
statistical survival of the tested zebrafish ([2]; 0.01 μM medicated bath, 48 hpf): 24
statistical death of the tested zebrafish ([2]; 0.01 μM medicated bath, 72 hpf): 6
statistical survival of the tested zebrafish ([2]; 0.01 μM medicated bath, 72 hpf): 24
statistical death of the tested zebrafish ([2]; 0.01 μM medicated bath, 96 hpf): 8
statistical survival of the tested zebrafish ([2]; 0.01 μM medicated bath, 96 hpf): 22
statistical death of the tested zebrafish [2, 3]: 8
statistical survival of the tested zebrafish [2, 3]: 22
statistical death of the tested zebrafish ([2]; 0.1 μM medicated bath, 24 hpf): 4
statistical survival of the tested zebrafish ([2]; 0.1 μM medicated bath, 24 hpf): 26
statistical death of the tested zebrafish ([2]; 0.1 μM medicated bath, 48 hpf): 4
statistical survival of the tested zebrafish ([2]; 0.1 μM medicated bath, 48 hpf): 26
statistical death of the tested zebrafish ([2]; 0.1 μM medicated bath, 72 hpf): 4
statistical survival of the tested zebrafish ([2]; 0.1 μM medicated bath, 72 hpf): 26
statistical death of the tested zebrafish ([2]; 0.1 μM medicated bath, 96 hpf): 4
statistical survival of the tested zebrafish ([2]; 0.1 μM medicated bath, 96 hpf): 26
statistical death of the tested zebrafish ([2]; 0.1 μM medicated bath, 120 hpf): 4
statistical survival of the tested zebrafish ([2]; 0.1 μM medicated bath, 120 hpf): 26
statistical death of the tested zebrafish ([2]; 1 μM medicated bath, 24 hpf): 2
statistical survival of the tested zebrafish ([2]; 1 μM medicated bath, 24 hpf): 28
statistical death of the tested zebrafish ([2]; 1 μM medicated bath, 48 hpf): 2
statistical survival of the tested zebrafish ([2]; 1 μM medicated bath, 48 hpf): 28
statistical death of the tested zebrafish ([2]; 1 μM medicated bath, 72 hpf): 2
statistical survival of the tested zebrafish ([2]; 1 μM medicated bath, 72 hpf): 28
statistical death of the tested zebrafish ([2]; 1 μM medicated bath, 96 hpf): 2
statistical survival of the tested zebrafish ([2]; 1 μM medicated bath, 96 hpf): 28
statistical death of the tested zebrafish ([2]; 1 μM medicated bath, 120 hpf): 2
statistical survival of the tested zebrafish ([2]; 1 μM medicated bath, 120 hpf): 28
statistical death of the tested zebrafish ([2]; 10 μM medicated bath, 24 hpf): 4
statistical survival of the tested zebrafish ([2]; 10 μM medicated bath, 24 hpf): 26
statistical death of the tested zebrafish ([2]; 10 μM medicated bath, 48 hpf): 4
statistical survival of the tested zebrafish ([2]; 10 μM medicated bath, 48 hpf): 26
statistical death of the tested zebrafish ([2]; 10 μM medicated bath, 72 hpf): 4
statistical survival of the tested zebrafish ([2]; 10 μM medicated bath, 72 hpf): 26
statistical death of the tested zebrafish ([2]; 10 μM medicated bath, 96 hpf): 4
